From PubChem BioAssay (NCI)
Several values for one entry are separate records, joined by “and”; a condition that tells them apart may be missing. Equal values may be shown once.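 How tested: cells in 96-well plates exposed to compound for 48 hours at five concentrations. The concentration for 50% growth inhibition is given as GI50. TGI: total growth inhibition.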

How the values were obtained:
Test in all cases: NCI anticancer screen, dose series, 48 h
EKVX NSCLC = test system: EKVX NSCLC
NCI/ADR-RES ovarian = test system: NCI/ADR-RES ovarian
LOX IMVI melanoma = test system: LOX IMVI melanoma
UO-31 renal = test system: UO-31 renal
SK-MEL-2 melanoma = test system: SK-MEL-2 melanoma
TK-10 renal = test system: TK-10 renal
T-47D breast = test system: T-47D breast
U251 CNS = test system: U251 CNS
PC-3 prostate = test system: PC-3 prostate
MDA-MB-435 = test system: MDA-MB-435

| SMILES | GI50 (EKVX NSCLC) | TGI (EKVX NSCLC) | GI50 (NCI/ADR-RES ovarian) | TGI (NCI/ADR-RES ovarian) | GI50 (LOX IMVI melanoma) | TGI (LOX IMVI melanoma) | GI50 (UO-31 renal) | TGI (UO-31 renal) | GI50 (SK-MEL-2 melanoma) | TGI (SK-MEL-2 melanoma) | GI50 (TK-10 renal) | TGI (TK-10 renal) | GI50 (T-47D breast) | TGI (T-47D breast) | GI50 (U251 CNS) | TGI (U251 CNS) | GI50 (PC-3 prostate) | TGI (PC-3 prostate) | GI50 (MDA-MB-435) | TGI (MDA-MB-435) |
| --- | --- | --- | --- | --- | --- | --- | --- | --- | --- | --- | --- | --- | --- | --- | --- | --- | --- | --- | --- | --- |
| C=C(C)[C@@H]1CC[C@]2(C(=O)NCCCN)CC[C@]3(C)[C@H](CC[C@@H]4[C@@]5(C)CC[C@H](O)C(C)(C)[C@@H]5CC[C@]43C)[C@@H]12 | 23.3 µM | 76.1 µM | 24.8 µM | 81.2 µM | 25.5 µM | > 100 µM | 38.9 µM | > 100 µM | 27.3 µM | 85.8 µM | 23.9 µM | 60.4 µM | 13.1 µM | 53.2 µM | 17.7 µM | 49.4 µM | 12.6 µM | 37.8 µM | 28.7 µM | > 100 µM |
| CCn1c(-c2nonc2N)nc2cncc(C(=O)N3CCNCC3)c21 | > 25 µM | > 25 µM | > 25 µM | > 25 µM | > 25 µM | > 25 µM | > 25 µM | > 25 µM | > 25 µM | > 25 µM | > 25 µM | > 25 µM | > 25 µM | > 25 µM | > 25 µM | > 25 µM | > 25 µM | > 25 µM | > 25 µM | > 25 µM |
| O=C(Nc1cccc(Cl)c1)Nc1ncc(CCNc2ncnc3ccsc23)s1 | 3.13 µM and 3.14 µM | 19 µM and > 10 µM | 1.34 µM and 1.6 µM | 11.8 µM and > 10 µM | 1.38 µM and 1.2 µM | > 43.9 µM | 6.01 µM and 3.22 µM | 28.7 µM and > 10 µM | 2.88 µM and 1.76 µM | 10.8 µM and 6.26 µM | 3.46 µM and 4.18 µM | 16.1 µM and > 10 µM | 2.26 µM and 1.27 µM | 7.5 µM and 5.63 µM | 4.68 µM and 2.16 µM | > 45.7 µM | 1.05 µM and 1.92 µM | 13.8 µM and > 10 µM | 1.99 µM and 1.89 µM | 14.2 µM and > 10 µM |
| Fc1ccc2[nH]cc(Cc3c[nH]c4ccc(F)cc34)c2c1 | 17.6 µM | 41.8 µM | 17.2 µM | 90 µM | 16 µM | 47.1 µM | 13.7 µM | 33.7 µM | 19.8 µM | 46.1 µM | 28.9 µM | 68.6 µM | 20 µM | 96.9 µM | 19.7 µM | 44.8 µM | 15 µM | 35 µM | 7.46 µM | 24.9 µM |
| O=c1cc(CNc2cc(F)cc(F)c2)c2ccc(I)cc2[nH]1 | 2.33 µM | > 100 µM | 0.537 µM | > 100 µM | 0.679 µM | > 100 µM | 4.27 µM | > 100 µM | 1.44 µM | > 100 µM | > 100 µM | > 100 µM | 1.01 µM | > 100 µM | 0.574 µM | > 100 µM | 0.571 µM | > 100 µM | 0.108 µM | 0.499 µM |
| C=C(C)[C@@H]1CC=C(CO)CC1 | > 10 µM | > 10 µM and 1250 µM |  | > 10 µM | > 10 µM | > 10 µM and 923 µM | > 10 µM | > 10 µM and 1050 µM | > 10 µM | > 10 µM and 817 µM | > 10 µM | > 10 µM and 998 µM |  | > 10 µM | > 10 µM | > 10 µM and 806 µM |  | > 10 µM |  | > 10 µM |
| CC1=CC(=O)c2c(O)cccc2C1=O |  | 3.08 µM |  | 3.16 µM |  | 3.32 µM |  | 2.98 µM |  | 3.72 µM |  | 3.14 µM |  | 2.22 µM |  | 20.4 µM |  | 4.75 µM |  | 3.26 µM |
| N=C(N)c1nn(C2OC(CO)C(O)C2O)c2nc[nH]c(=O)c12 (stereo not drawn) | 0.493 µM | 3.95 µM | 0.321 µM | 1.72 µM | 0.337 µM | 1.84 µM | 0.332 µM | 2.62 µM | 0.19 µM | 0.663 µM | 0.363 µM | 2.17 µM | 0.255 µM | 2.71 µM | 2.06 µM | > 37.1 µM | 0.788 µM | 6.74 µM | 0.311 µM | 1.16 µM |
| COc1ccc(C(=O)/C=C/c2ccc(Cl)cc2)cc1S(=O)(=O)Nc1c(N)nc(SC)[nH]c1=O | 3.94 µM | 18.3 µM | 40.1 µM | > 100 µM | 1.63 µM | 3.22 µM | 1.89 µM | 4.53 µM | 12.8 µM | 27.9 µM | 2.98 µM | 9.44 µM | 2.45 µM | 9.83 µM | 1.58 µM | 3.12 µM | 2.53 µM | 6.85 µM | 2.95 µM | 10.7 µM |
| O=C(O)CSSCC(=O)O |  | > 100 µM |  | > 100 µM |  | > 100 µM |  | > 100 µM |  | > 100 µM |  | > 100 µM |  | > 100 µM |  | > 100 µM |  | > 100 µM |  | > 100 µM |
| CC[C@](C)(O)C(=O)O[C@H]1C(=O)O[C@@H]2C[C@H]3C(C)=CC(=O)[C@@H](O)[C@]3(C)[C@H]3[C@@]4(O)OC[C@]32[C@@H]1[C@@H](C)[C@H]4O | 1.61 µM |  | 0.036 µM |  | 0.0563 µM | 0.278 µM and 0.545 µM | 0.662 µM | 3.71 µM and 3.78 µM |  | 0.644 µM and 0.217 µM |  | 9.39 µM |  | 3.78 µM |  | 0.41 µM and 0.121 µM |  | 44.5 µM |  | > 24.3 µM |
| CCCN1C(=O)/C(=c2\sc3n(c2=O)C2C(NN=3)N(CC)C(=O)N2CC)c2ccccc21 (stereo not drawn) | 0.729 µM | > 57.2 µM | 0.366 µM | 10.9 µM | 0.629 µM | 18.8 µM | 0.744 µM | 17.6 µM | 0.799 µM | 15.4 µM | 3.62 µM | 22.3 µM | 0.438 µM | > 88.7 µM | 0.485 µM | 12.3 µM | 0.453 µM | > 37.2 µM | 0.196 µM | 0.445 µM |
| Cn1c(=O)c2[nH]c(/N=N/N3CCN(CCO)CC3)nc2n(C)c1=O |  | > 100 µM |  | > 100 µM |  | > 100 µM |  | > 100 µM |  | > 100 µM |  | > 100 µM |  | > 100 µM |  | > 100 µM |  | > 100 µM |  | > 100 µM |
| O=C(O)CS(=O)(=O)C(c1ccccc1)c1ccccc1 |  | > 100 µM |  | > 100 µM |  | > 100 µM |  | > 100 µM |  | > 100 µM |  | > 100 µM |  | > 100 µM |  | > 100 µM |  | > 100 µM |  | > 100 µM |
| CCN(CC)CCOc1ccc(C(=C(C)c2ccc(Cl)cc2)c2ccc(OCCN(CC)CC)cc2)cc1 | 0.989 µM | 3.5 µM | 0.657 µM | 1.4 µM | 0.552 µM | 1.03 µM | 0.503 µM | 0.969 µM | 0.661 µM | 1.32 µM | 0.698 µM | 1.67 µM | 0.565 µM | 1.25 µM | 0.582 µM | 1.15 µM | 0.63 µM | 1.36 µM | 0.558 µM | 1.02 µM |
| NC(=O)[C@H]1CCN(c2ncnc(N)c2F)C[C@@H]1N1CCC[C@@H](Nc2cc(Cl)cc(C(F)(F)F)c2)C1=O | 28.7 µM | 77.1 µM | 29.7 µM | > 100 µM | 11.2 µM | 27.1 µM | 9.16 µM | > 100 µM | 19 µM | 41.5 µM | 13.5 µM | 39 µM | 7.7 µM | 76 µM | 26.3 µM | > 100 µM | 17.7 µM | > 100 µM | 14.3 µM | 39.5 µM |
| CC(C)(C(=O)NN)c1ccccc1 |  | > 100 µM |  | > 100 µM |  | > 100 µM |  | > 100 µM |  | > 100 µM |  | > 100 µM |  | > 100 µM |  | > 100 µM |  | > 100 µM |  | > 100 µM |
| CCN=C1C=CC(=C(c2ccc(N(C)C)cc2)c2ccc(N(C)C)cc2)c2ccccc21 | 0.0445 µM | 0.488 µM | 0.636 µM | 3.94 µM | 0.0528 µM | 1.01 µM | 0.196 µM | 0.663 µM | 0.101 µM | 0.472 µM | 0.0913 µM | 1.31 µM | 0.0567 µM | 1.52 µM | 0.0297 µM | 0.198 µM | 0.0468 µM | 1.06 µM | 0.0705 µM | 0.408 µM |
| COc1cc2c(cc1OC)-c1ccc3cc4c(cc3c1N(CCN1CCCC1)C2)OCO4 | 0.953 µM | 7.31 µM | 7 µM | 53.8 µM | 0.309 µM | 1.39 µM | 1.51 µM | 4.09 µM | 7.61 µM | 20.1 µM | 3.46 µM | 12.5 µM | 0.361 µM | 2.28 µM | 0.563 µM | 1.9 µM | 0.303 µM | 1.85 µM | 1.36 µM | 6.13 µM |
| CCOC(=O)Cc1c[nH]c(=S)[nH]c1=O | > 100 µM | > 100 µM | > 100 µM | > 100 µM | > 100 µM | > 100 µM | > 100 µM | > 100 µM | > 100 µM | > 100 µM | > 100 µM | > 100 µM | > 100 µM | > 100 µM | > 100 µM | > 100 µM | > 100 µM | > 100 µM | > 100 µM | > 100 µM |
| O=C(CCN1CCCC1)Nc1ccc2c(NCc3ccc(F)cc3)c3ccccc3nc2c1 | 0.58 µM | 2.3 µM | 9.11 µM | 43.9 µM | 0.38 µM | 1.48 µM | 1.33 µM | 3.09 µM | 1.21 µM | 2.7 µM | 1.04 µM | 2.93 µM | 0.768 µM | 3.22 µM | 0.462 µM | 1.88 µM | 0.479 µM | 1.9 µM | 0.692 µM | 1.97 µM |
| C[C@]12CC[C@H]3[C@@H](CCC4=CC(=O)CC[C@@H]43)[C@@H]1CC[C@@H]2OC(=O)N(CCCl)N=O | 3.67 µM | 36.6 µM | 2.96 µM | 31.9 µM | 1.1 µM | 23.9 µM | 0.837 µM | 14.1 µM | 3.07 µM | 28.6 µM | 11.1 µM | 43.8 µM | 3.52 µM | 29.3 µM | 0.346 µM | 17.4 µM | 5.02 µM | > 48.1 µM | 3.54 µM | 32.5 µM |
| COc1ccc2c(c1)CCC1C2CCC2(C)C1CCC2(O)CNC(=O)CCCCC1CCSS1 (stereo not drawn) | 48 µM | > 100 µM | 7.28 µM | > 100 µM | 4.37 µM | > 100 µM | 24.9 µM | > 100 µM | 33.2 µM | > 100 µM | 17.7 µM | 57 µM | 3.27 µM | 28.9 µM | 15.2 µM | 56.6 µM | 5.91 µM | > 100 µM | 7.83 µM | > 100 µM |
